Earlier results in PubChem BioAssay AID1259409 (Chemical Carcinogenesis Research Information System (CCRIS), 2018).

System: rodent chemically induced tumor inhibition, incidence and multiplicity
Experiment: CCRIS tumor inhibitor studies
Conditions: Carcinogen: OCHRATOXIN A, 303-47-9, Route [Inhibitor]: ORAL, Species: RAT, Dose [Carcinogen]: 0.4 MG/KG BW 3X/WK FOR LIFETIME, Promoter: NONE

O=S(=O)(O)CCS
outcome (Dose [Inhibitor]: 1 G/L IN DRINKING WATER FOR LIFETIME (STUDY DURATION: LIFETIME), Strain/Sex: DA/FEMALE, Target Tissue: Type of Lesion: URETHRA: TRANSITIONAL CELL CARCINOMA): 0/40 (0%), 0/40 (0%), 0%, not significant
outcome (Dose [Inhibitor]: 1 G/L IN DRINKING WATER FOR LIFETIME (STUDY DURATION: LIFETIME), Strain/Sex: DA/FEMALE, Target Tissue: Type of Lesion: URINARY BLADDER: TRANSITIONAL CELL CARCINOMA): 0/40 (0%), 0/40 (0%), 0%, not significant
tumour outcome (control, treated, inhibition, significance) (Dose [Inhibitor]: 1 G/L IN DRINKING WATER FOR LIFETIME (STUDY DURATION: LIFETIME), Strain/Sex: DA/MALE, Target Tissue: Type of Lesion: KIDNEY: TUBULAR CELL ADENOMA): 1/20 (5%), 0/20 (0%), 100%, not significant
tumour outcome (control, treated, inhibition, significance) (Dose [Inhibitor]: 1 G/L IN DRINKING WATER FOR LIFETIME (STUDY DURATION: LIFETIME), Strain/Sex: DA/MALE, Target Tissue: Type of Lesion: KIDNEY: TUBULAR CELL CARCINOMA): 6/20 (30%), 2/20 (40%), -33%, not significant
outcome (Dose [Inhibitor]: 1 G/L IN DRINKING WATER FOR LIFETIME (STUDY DURATION: LIFETIME), Strain/Sex: DA/MALE, Target Tissue: Type of Lesion: URETHRA: TRANSITIONAL CELL CARCINOMA): 0/20 (0%), 0/20 (0%), 0%, not significant
outcome (Dose [Inhibitor]: 1 G/L IN DRINKING WATER FOR LIFETIME (STUDY DURATION: LIFETIME), Strain/Sex: DA/MALE, Target Tissue: Type of Lesion: URINARY BLADDER: TRANSITIONAL CELL PAPILLOMA): 0/20 (0%), 0/20 (0%), 0%, not significant
outcome (Dose [Inhibitor]: 1 G/L IN DRINKING WATER FOR LIFETIME (STUDY DURATION: LIFETIME), Strain/Sex: LEWIS/FEMALE, Target Tissue: Type of Lesion: KIDNEY: TUBULAR CELL ADENOMA): 0/20 (0%), 0/20 (0%), 0%, not significant
outcome (Dose [Inhibitor]: 1 G/L IN DRINKING WATER FOR LIFETIME (STUDY DURATION: LIFETIME), Strain/Sex: LEWIS/FEMALE, Target Tissue: Type of Lesion: URETHRA: TRANSITIONAL CELL CARCINOMA): 0/20 (0%), 0/20 (0%), 0%, not significant
outcome (Dose [Inhibitor]: 1 G/L IN DRINKING WATER FOR LIFETIME (STUDY DURATION: LIFETIME), Strain/Sex: LEWIS/MALE, Target Tissue: Type of Lesion: KIDNEY: TUBULAR CELL ADENOMA): 0/20 (0%), 0/20 (0%), 0%, not significant
tumour outcome (control, treated, inhibition, significance) (Dose [Inhibitor]: 1 G/L IN DRINKING WATER FOR LIFETIME (STUDY DURATION: LIFETIME), Strain/Sex: LEWIS/MALE, Target Tissue: Type of Lesion: KIDNEY: TUBULAR CELL CARCINOMA): 2/20 (10%), 1/20 (5%), 50%, not significant
outcome (Dose [Inhibitor]: 1 G/L IN DRINKING WATER FOR LIFETIME (STUDY DURATION: LIFETIME), Strain/Sex: LEWIS/MALE, Target Tissue: Type of Lesion: URETHRA: TRANSITIONAL CELL CARCINOMA): 0/20 (0%), 0/20 (0%), 0%, not significant
outcome (Dose [Inhibitor]: 1 G/L IN DRINKING WATER FOR LIFETIME (STUDY DURATION: LIFETIME), Strain/Sex: LEWIS/MALE, Target Tissue: Type of Lesion: URINARY BLADDER: TRANSITIONAL CELL CARCINOMA): 0/20 (0%), 0/20 (0%), 0%, not significant
outcome (Dose [Inhibitor]: 1 G/L IN DRINKING WATER FOR LIFETIME (STUDY DURATION: LIFETIME), Strain/Sex: LEWIS/MALE, Target Tissue: Type of Lesion: URINARY BLADDER: TRANSITIONAL CELL PAPILLOMA): 0/20 (0%), 0/20 (0%), 0%, not significant
outcome (Dose [Inhibitor]: 1 G/LITER IN DRINKING WATER FOR LIFETIME (STUDY DURATION: LIFETIME), Strain/Sex: DA/FEMALE, Target Tissue: Type of Lesion: KIDNEY: TUBULAR CELL ADENOMA): 0/40 (0%), 0/40 (0%), 0%, not significant
outcome (Dose [Inhibitor]: 1 G/LITER IN DRINKING WATER FOR LIFETIME (STUDY DURATION: LIFETIME), Strain/Sex: DA/FEMALE, Target Tissue: Type of Lesion: KIDNEY: TUBULAR CELL CARCINOMA): 0/40 (0%), 0/40 (0%), 0%, not significant
